Data: patent publication US9073830B2 (Hyundai Pharm Co., Ltd., priority 2011, dated 2015)

Assays:
[1] = target: T1, mouse 11β-HSD1 (Mus musculus, UniProt P50172); assay: Enzyme activity analysis on mouse 11β-HSD1 (HTRF cortisol, liver microsomes); type: biochemical; conditions: second value of cell
T1 construct: 100 ug/ml human/mouse liver microsomes; from tissue; host or cells: mouse liver microsomes
Procedure: (§1) After culturing at 37° C. for 2 hours, 5 μl of cryptate-labeled anti-cortisol antibody and 5 μl of d2-labeled cortisol were added thereto. After further culturing at room temperature for 2 hours, a homogeneous time-resolved fluorescence (HTRF, Cisbio) signal was measured. From each analysis, based on a standard curve calculated using cortisols of several known concentrations, an amount of produced cortisol was tested.
(§2) While an amount of cortisol, produced without the compound, was used as a control, an inhibition percentage by the test compound, at each concentration, was calculated. By using an inhibition curve calculated by coordinates of inhibition percentage to test compound concentration, an IC50 value of the compound on 11β-HSD1 was obtained.

[2] = target: T2, human 11β-HSD1 (Homo sapiens, UniProt P28845); assay: Enzyme activity analysis on human 11β-HSD1 (HTRF cortisol, liver microsomes); type: biochemical; conditions: first value of cell
T2 construct: 100 ug/ml human/mouse liver microsomes; from tissue; host or cells: human liver microsomes
T2 sequence (P28845 whole entry): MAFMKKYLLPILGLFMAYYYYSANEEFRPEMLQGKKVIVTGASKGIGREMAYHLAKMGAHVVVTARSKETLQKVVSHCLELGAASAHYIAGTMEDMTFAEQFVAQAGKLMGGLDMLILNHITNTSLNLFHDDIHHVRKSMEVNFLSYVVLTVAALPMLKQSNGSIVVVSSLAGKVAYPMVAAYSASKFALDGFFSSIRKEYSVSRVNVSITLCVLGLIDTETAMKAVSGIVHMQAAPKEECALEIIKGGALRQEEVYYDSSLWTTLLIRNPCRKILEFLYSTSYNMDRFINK
Procedure: as §1, §2

T1 sequence (P50172 whole entry): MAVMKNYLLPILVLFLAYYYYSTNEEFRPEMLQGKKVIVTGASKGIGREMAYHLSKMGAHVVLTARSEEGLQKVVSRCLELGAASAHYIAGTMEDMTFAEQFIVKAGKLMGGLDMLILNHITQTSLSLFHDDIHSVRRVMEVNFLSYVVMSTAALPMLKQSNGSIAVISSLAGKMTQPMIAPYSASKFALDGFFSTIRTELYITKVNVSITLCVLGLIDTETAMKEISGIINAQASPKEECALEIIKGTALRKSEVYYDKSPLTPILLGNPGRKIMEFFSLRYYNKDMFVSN

Question: What does the source list for CC(C)(NS(=O)(=O)c1ccc(C(F)(F)F)cc1)C(=O)NC1C2CC3CC(C2)CC1C3 (centres unmarked) [compound 37, N-(adamantane-2-yl)-2-methyl-2-(4-trifluoromethylphenylsulfonamido)propanamide]?
Answer: IC50 [1]: > 2.5 µM; IC50 [2]: > 2.5 µM

Question: How did the IC50 [1] turn out when CC(=O)c1ccc(S(=O)(=O)NC(C)(C)C(=O)NC2C3CC4CC(C3)CC2C4)cc1 (centres unmarked) [compound 38, N-(adamantane-2-yl)-2-methyl-2-(4-acetylphenylsulfonamido)propanamide] was run?
Answer: 0.847 µM

Question: And the IC50 [2]?
Answer: 0.829 µM

Question: Which IC50 [1] does the source give for Cc1cc(F)ccc1S(=O)(=O)NC(C)(C)C(=O)NC1C2CC3CC(C2)CC1C3 (centres unmarked) [compound 39, N-(adamantane-2-yl)-2-methyl-2-(4-fluoro-2-methylphenylsulfonamido)propanamide] here?
Answer: 0.561 µM

Question: And the IC50 [2]?
Answer: 0.043 µM

Question: Which results are given for Cc1ccc([N+](=O)[O-])cc1S(=O)(=O)NC(C)(C)C(=O)NC1C2CC3CC(C2)CC1C3 (centres unmarked) [compound 40, N-(adamantane-2-yl)-2-methyl-2-(5-nitro-2-methylphenylsulfonamido)propanamide]?
Answer: IC50 [1]: 1.85 µM; IC50 [2]: 0.098 µM

Question: For CC(C)(NS(=O)(=O)c1c(F)cccc1F)C(=O)NC1C2CC3CC(C2)CC1C3 (centres unmarked) [compound 41, N-(adamantane-2-yl)-2-methyl-2-(2,6-difluorophenylsulfonamido)propanamide], which IC50 [1] is on record?
Answer: 0.156 µM

Question: And the IC50 [2]?
Answer: 0.041 µM

Question: How did the IC50 [1] turn out when CC(C)(NS(=O)(=O)c1ccc(-c2ccccc2)cc1)C(=O)NC1C2CC3CC(C2)CC1C3 (centres unmarked) [compound 42, N-(adamantane-2-yl)-2-methyl-2-([1,1-biphenyl]-4-ylsulfonamido)propanamide] was run?
Answer: 1.7 µM

Question: What about the IC50 [2] of the same compound?
Answer: 1.8 µM

Question: Which results are given for CC(C)(NS(=O)(=O)c1ccc(C(=O)NC2C3CC4CC(C3)CC2C4)cc1Cl)C(=O)NC1C2CC3CC(C2)CC1C3 (centres unmarked) [compound 44]?
Answer: IC50 [1]: 0.167 µM; IC50 [2]: 0.481 µM

Question: CC(C)(NS(=O)(=O)c1c(Cl)cccc1Cl)C(=O)NC1C2CC3CC(C2)CC1C3 (centres unmarked) [compound 45, N-(adamantane-2-yl)-2-methyl-2-(2,6-dichlorophenylsulfonamido)propanamide] was tested. Which IC50 [1] did it give?
Answer: 0.02 µM

Question: What about the IC50 [2] of the same compound?
Answer: 0.009 µM

Question: With CC(C)(NS(=O)(=O)c1ccc(Cl)cc1Cl)C(=O)NC1C2CC3CC(C2)CC1C3 (centres unmarked) [compound 46, N-(adamantane-2-yl)-2-methyl-2-(2,4-dichlorophenylsulfonamido)propanamide] as the compound, how does the IC50 [1] read?
Answer: 0.621 µM

Question: What about the IC50 [2] of the same compound?
Answer: 0.105 µM

Question: Which results are given for COc1ccc(S(=O)(=O)NC(C)(C)C(=O)NC2C3CC4CC(C3)CC2C4)c(OC)c1 (centres unmarked) [compound 47, N-(adamantane-2-yl)-2-methyl-2-(2,4-dimethoxyphenylsulfonamido)propanamide]?
Answer: IC50 [1]: 1.92 µM; IC50 [2]: 0.082 µM

Question: COc1ccc(OC)c(S(=O)(=O)NC(C)(C)C(=O)NC2C3CC4CC(C3)CC2C4)c1 (centres unmarked) [compound 48, N-(adamantane-2-yl)-2-methyl-2-(2,5-dimethoxyphenylsulfonamido)propanamide] was tested. Which IC50 [1] did it give?
Answer: 1.83 µM

Question: And the IC50 [2]?
Answer: 0.02 µM

Question: CC(C)(NS(=O)(=O)c1cc(C(F)(F)F)cc(C(F)(F)F)c1)C(=O)NC1C2CC3CC(C2)CC1C3 (centres unmarked) [compound 49, N-(adamantane-2-yl)-2-methyl-2-(3,5-ditrifluoromethylphenylsulfonamido)propanamide] was tested. Which IC50 [1] did it give?
Answer: > 2.5 µM

Question: And the IC50 [2]?
Answer: 1.35 µM

Question: For CC(C)(NS(=O)(=O)c1cccnc1Cl)C(=O)NC1C2CC3CC(C2)CC1C3 (centres unmarked) [compound 50, N-(adamantane-2-yl)-2-methyl-2-(2-chloropyridine-3-sulfonamido)propanamide], which IC50 [1] is on record?
Answer: 0.292 µM

Question: What about the IC50 [2] of the same compound?
Answer: 0.105 µM

Question: CC(C)(NS(=O)(=O)c1ccc(Cl)c(Cl)c1Cl)C(=O)NC1C2CC3CC(C2)CC1C3 (centres unmarked) [compound 51, N-(adamantane-2-yl)-2-methyl-2-(2,3,4-trichlorophenylsulfonamido)propanamide] was tested. Which IC50 [1] did it give?
Answer: 1.3 µM

Question: And the IC50 [2]?
Answer: 0.183 µM

Question: How did the IC50 [1] turn out when CC(C)(NS(=O)(=O)CCc1cccc2ccccc12)C(=O)NC1C2CC3CC(C2)CC1C3 (centres unmarked) [compound 52, N-(adamantane-2-yl)-2-methyl-2-(2-(naphthalene-1-yl)ethylsulfonamido)propanamide] was run?
Answer: 2.14 µM

Question: And the IC50 [2]?
Answer: 1.17 µM

Question: What does the source list for CCc1ccc(S(=O)(=O)NC(C)(C)C(=O)NC2C3CC4CC(C3)CC2C4)cc1 (centres unmarked) [compound 53, N-(adamantane-2-yl)-2-methyl-2-(4-ethylphenylsulfonamido)propanamide]?
Answer: IC50 [1]: 0.673 µM; IC50 [2]: 0.21 µM

Question: Which IC50 [1] does the source give for CC(C)(NS(=O)(=O)c1ccc(F)c(Cl)c1)C(=O)NC1C2CC3CC(C2)CC1C3 (centres unmarked) [compound 54, N-(adamantane-2-yl)-2-methyl-2-(4-fluoro-3-chlorophenylsulfonamido)propanamide] here?
Answer: 0.904 µM

Question: And the IC50 [2]?
Answer: 0.223 µM

Question: CC(C)(NS(=O)(=O)c1ccc(F)cc1Cl)C(=O)NC1C2CC3CC(C2)CC1C3 (centres unmarked) [compound 55, N-(adamantane-2-yl)-2-methyl-2-(4-fluoro-2-chlorophenylsulfonamido)propanamide] was tested. Which IC50 [1] did it give?
Answer: 0.186 µM

Question: What about the IC50 [2] of the same compound?
Answer: 0.039 µM

Question: How did the IC50 [1] turn out when CC(C)(NS(=O)(=O)c1ccccc1C(N)=O)C(=O)NC1C2CC3CC(C2)CC1C3 (centres unmarked) [compound 56] was run?
Answer: > 2.5 µM

Question: What about the IC50 [2] of the same compound?
Answer: 0.532 µM

Question: For CC(C)c1ccc(S(=O)(=O)NC(C)(C)C(=O)NC2C3CC4CC(C3)CC2C4)cc1 (centres unmarked) [compound 57, N-(adamantane-2-yl)-2-methyl-2-(4-isopropylphenylsulfonamido)propanamide], which IC50 [1] is on record?
Answer: 1.32 µM

Question: And the IC50 [2]?
Answer: 1.04 µM

Question: For CC(C)(NS(=O)(=O)c1ccc(F)cc1F)C(=O)NC1C2CC3CC(C2)CC1C3 (centres unmarked) [compound 58, N-(adamantane-2-yl)-2-methyl-2-(2,4-difluorophenylsulfonamido)propanamide], which IC50 [1] is on record?
Answer: 0.621 µM

Question: What about the IC50 [2] of the same compound?
Answer: 0.199 µM

Question: Which results are given for Cc1cc(C)cc(S(=O)(=O)NC(C)(C)C(=O)NC2C3CC4CC(C3)CC2C4)c1 (centres unmarked) [compound 59, N-(adamantane-2-yl)-2-methyl-2-(3,5-dimethylphenylsulfonamido)propanamide]?
Answer: IC50 [1]: 1.21 µM; IC50 [2]: 0.331 µM

Question: For COc1cc([N+](=O)[O-])ccc1S(=O)(=O)NC(C)(C)C(=O)NC1C2CC3CC(C2)CC1C3 (centres unmarked) [compound 60, N-(adamantane-2-yl)-2-methyl-2-(4-nitro-2-methoxyphenylsulfonamido)propanamide], which IC50 [1] is on record?
Answer: 0.644 µM

Question: What about the IC50 [2] of the same compound?
Answer: 0.135 µM

Question: For CC(C)(NS(=O)(=O)c1ccc(Cl)c([N+](=O)[O-])c1)C(=O)NC1C2CC3CC(C2)CC1C3 (centres unmarked) [compound 61, N-(adamantane-2-yl)-2-methyl-2-(4-chloro-3-nitrophenylsulfonamido)propanamide], which IC50 [1] is on record?
Answer: > 2.5 µM

Question: What about the IC50 [2] of the same compound?
Answer: > 2.5 µM

Question: Which IC50 [1] does the source give for Cc1ccc(S(=O)(=O)NC(C)(C)C(=O)NC2C3CC4CC(C3)CC2C4)cc1Cl (centres unmarked) [compound 62, N-(adamantane-2-yl)-2-methyl-2-(4-methyl-3-chlorophenylsulfonamido)propanamide] here?
Answer: 0.686 µM

Question: And the IC50 [2]?
Answer: 0.215 µM

Question: CC(C)(NS(=O)(=O)Cc1ccccc1)C(=O)NC1C2CC3CC(C2)CC1C3 (centres unmarked) [compound 63, N-(adamantane-2-yl)-2-methyl-2-(phenylmethylsulfonamido)propanamide] was tested. Which IC50 [1] did it give?
Answer: 0.283 µM

Question: What about the IC50 [2] of the same compound?
Answer: 0.039 µM

Question: With CC(C)(NS(=O)(=O)c1cccc(Br)c1)C(=O)NC1C2CC3CC(C2)CC1C3 (centres unmarked) [compound 64, N-(adamantane-2-yl)-2-methyl-2-(3-bromophenylsulfonamido)propanamide] as the compound, how does the IC50 [1] read?
Answer: 1.02 µM

Question: What about the IC50 [2] of the same compound?
Answer: 0.433 µM

Question: Which IC50 [1] does the source give for CC(C)(NS(=O)(=O)c1ccc(Br)cc1)C(=O)NC1C2CC3CC(C2)CC1C3 (centres unmarked) [compound 65, N-(adamantane-2-yl)-2-methyl-2-(4-bromophenylsulfonamido)propanamide] here?
Answer: 1.65 µM

Question: What about the IC50 [2] of the same compound?
Answer: 0.996 µM
